Patent US7282507B2, “Indole derivatives as selective androgen receptor modulators (SARMS)” (Janssen Pharmaceutica N.V., priority 2004, dated 2007)
“And” between values parts separate entries of the source, which are not always exact repeats. Equal entries are not always repeated. Where two headings read alike, the source gives them in different places.

Assays:
[1] = biological target: T1, androgen receptor (rat ventral prostate cytosol) (Rattus norvegicus, UniProt P15207); experiment: Androgen Receptor Binding Using Rat Ventral Prostate Cytosol; conditions: for inhibition at 1 µM: read-out: % Inhibition, Androgen Receptor Binding (Rat Cytosol); for IC50: read-out: IC50 (nM), Androgen Receptor Binding (Rat Cytosol)
T1 construct: from tissue; host or cells: ventral prostate cytosol of castrated male Sprague Dawley or Wistar rats
T1 sequence (P15207 1-902): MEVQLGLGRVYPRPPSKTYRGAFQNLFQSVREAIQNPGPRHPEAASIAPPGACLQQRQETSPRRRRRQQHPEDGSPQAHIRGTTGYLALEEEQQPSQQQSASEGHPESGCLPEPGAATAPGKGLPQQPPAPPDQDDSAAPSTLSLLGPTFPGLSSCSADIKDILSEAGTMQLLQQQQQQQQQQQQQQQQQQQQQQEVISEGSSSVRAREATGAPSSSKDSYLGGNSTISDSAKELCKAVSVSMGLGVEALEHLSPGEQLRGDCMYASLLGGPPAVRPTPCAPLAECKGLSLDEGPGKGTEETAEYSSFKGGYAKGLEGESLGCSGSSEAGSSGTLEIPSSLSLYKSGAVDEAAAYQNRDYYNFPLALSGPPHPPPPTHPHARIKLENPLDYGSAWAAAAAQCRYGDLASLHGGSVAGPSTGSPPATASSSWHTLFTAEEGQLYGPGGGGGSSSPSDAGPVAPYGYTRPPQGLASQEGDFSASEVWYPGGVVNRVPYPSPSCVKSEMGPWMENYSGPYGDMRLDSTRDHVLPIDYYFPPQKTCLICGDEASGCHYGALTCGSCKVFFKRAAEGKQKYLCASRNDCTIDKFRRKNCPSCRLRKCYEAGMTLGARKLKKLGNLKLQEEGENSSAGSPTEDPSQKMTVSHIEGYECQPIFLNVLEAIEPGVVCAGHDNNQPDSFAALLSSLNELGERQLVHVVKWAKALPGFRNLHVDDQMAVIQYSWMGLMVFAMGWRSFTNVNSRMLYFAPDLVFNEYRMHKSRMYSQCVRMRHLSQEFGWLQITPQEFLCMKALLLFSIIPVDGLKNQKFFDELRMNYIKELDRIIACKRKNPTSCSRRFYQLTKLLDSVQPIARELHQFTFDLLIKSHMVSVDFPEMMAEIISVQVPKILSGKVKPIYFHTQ
Procedure, shortened: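 Cytosol from castrated rat ventral prostate was incubated overnight at 4°C with 0.5 nM [3H] tracer and compound in TED buffer (10 mM Tris-HCl pH 7.4, molybdate, EDTA, DTT, glycerol).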

[2] = biological target: T2, androgen receptor LBD (Panvera) (Rattus norvegicus, UniProt P15207); experiment: Androgen Receptor Filtration Binding Assay (PANVERA)
T2 construct: 5 pmol androgen receptor LBD (Panvera); purchased Panvera
T2 sequence (P15207 651-882 limits assumed): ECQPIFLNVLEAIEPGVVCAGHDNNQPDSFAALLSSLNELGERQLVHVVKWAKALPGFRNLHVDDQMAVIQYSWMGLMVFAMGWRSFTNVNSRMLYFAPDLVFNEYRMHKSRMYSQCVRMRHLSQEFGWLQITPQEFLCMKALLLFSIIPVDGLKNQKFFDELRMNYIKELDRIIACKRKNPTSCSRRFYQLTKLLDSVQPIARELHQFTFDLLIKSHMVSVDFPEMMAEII
Method: The assay was run on a 96 well plate with each well filled with a total reaction volume 150 μL, of a solution containing 5 pmol androgen receptor LBD (Panvera) or 30 μL of freshly prepared rat cytosol, 0.5 nM [^3H] […] (TED buffer contains 10 mM Tris.HCl pH 7.4, 1 mM sodium molybdate, 1.5 mM EDTA, 1 mM DTT and 10% (v/v) glycerol.)
On day one, the solution containing receptor, tracer and TED buffer was distributed into a 96 well plate. Diluted test compound or control vehicle was then added to individual wells and the plate incubated at 4° C. overnight.
On day two, to each well was then added 20 μL human γ-globulin (ICN 823102), prepared at 25 mg/ml in TE pH 8.0, and 55 μL 40% polyethylene glycol 8000 (J T Baker U222-08), prepared in TE pH 8.0. The plate was incubated at 4° C. for 60 minutes. During incubation, the harvester was rinsed with 10% PEG 8000, prepared in TE pH 8.0, and a GF/C Unifilter-96 was pre-wet with 10% PEG. The binding reaction was filtered, the retentate was washed three times with 10% PEG and dried under vacuum for a couple of minutes, then dried at 50° C. for 5 min and the plate was bottom sealed. Next, 25 μL of Microscint-20 (Packard) was added to the filter wells and the plate was top sealed. The plate wells were then counted on a TopCount (Packard).
Counts per well were measured and IC50s determined by linear regression.

[3] = [3H] R1881 tracer 0.5 nM, read-out: IC50 (nM), Androgen Receptor Binding (Panvera)

Row | Structure (SMILES) | inhibition at 1 µM ([1]; Concentration 1000 nM) | IC50 [2, 3] | other results
1 | CC(O)(COC(=O)c1cccnc1)c1cc2cc(C#N)c(C(F)(F)F)cc2[nH]1 (stereo not drawn) [Compound 79] | 48.5% | > 9500 nM | 
2 | CC(O)(CSc1ccc(F)cc1)c1cc2cc(Cl)c(C(F)(F)F)cc2[nH]1 (stereo not drawn) [Compound 83] | 69% | 160 nM and 545 nM | IC50 [1]: 120 nM
3 | CC(O)(COC(=O)c1ccccc1)c1cc2cc(C#N)c(C(F)(F)F)cc2[nH]1 (stereo not drawn) [Compound 75] |  |  | inhibition at 1 µM [1]: 13.2%; IC50 ([2]; IC50 (nM), Androgen Receptor Binding (Panvera)): 9100 nM
4 | CC(O)(CSc1ccc(F)cc1)c1cc2cc(Cl)ccc2[nH]1 (stereo not drawn) [Compound 100] | 80% | 1160 nM | 
5 | CN(C)c1ccc(C(=O)OCC(C)(O)c2cc3cc([N+](=O)[O-])c(C(F)(F)F)cc3[nH]2)cc1 (stereo not drawn) [Compound 67] | 25.5% | 3000 nM | 
6 | CC(CO)(Sc1ccc(Cl)cc1)c1cc2cc(Cl)c(C(F)(F)F)cc2[nH]1 (racemic) [Compound 253] | 33.5% | 335 nM | 
7 | CC(O)(C[S+]([O-])c1ccc(Cl)c(Cl)c1)c1cc2cc(Cl)c(C(F)(F)F)cc2[nH]1 (stereo not drawn) [Compound 117] |  | 2000 nM | % Inhibition, Androgen Receptor Binding (Rat Cytosol) ([1]; Concentration 1000 nM, 1 µM): 32.5%
8 | CC(O)(Sc1ccc(Cl)c(Cl)c1)c1cc2cc([N+](=O)[O-])c(C(F)(F)F)cc2[nH]1 (racemic) [Compound 254] |  | 1020 nM and 920 nM | % Inhibition, Androgen Receptor Binding (Rat Cytosol) ([1]; Concentration 1000 nM): 41%; IC50 [1]: 670 nM
9 | CC(O)(COC(=O)c1ccc(F)cc1)c1cc2cc(C#N)c(C(F)(F)F)cc2[nH]1 (stereo not drawn) [Compound 77] | -9.25% | 1110 nM | 
10 | CC(O)(COC(=O)c1ccc(Cl)cc1)c1cc2cc(Cl)ccc2[nH]1 (stereo not drawn) [Compound 53] | 9.75% | 1970 nM | 
11 | CC(O)(C[S+]([O-])c1ccc(Cl)c(Cl)c1)c1cc2cc(Cl)c(C(F)(F)F)cc2[nH]1 (stereo not drawn) [Compound 116] | 28.4% | 1750 nM | 
12 | CC(O)(COC(=O)c1ccc(Cl)c(Cl)c1)c1cc2cc([N+](=O)[O-])c(C(F)(F)F)cc2[nH]1 (stereo not drawn) [Compound 56] | 38.5% | 485 nM and 610 nM | 
13 | CC(O)(COC(=O)c1ccc([N+](=O)[O-])cc1)c1cc2cc([N+](=O)[O-])c(C(F)(F)F)cc2[nH]1 (stereo not drawn) [Compound 63] | 47.5% | 1550 nM | 
14 | CC(O)(CSc1ccccc1)c1cc2cc(C#N)c(C(F)(F)F)cc2[nH]1 (stereo not drawn) [Compound 95] | 56.5% | 3000 nM | 
15 | COc1ccc(C(=O)OCC(C)(O)c2cc3cc([N+](=O)[O-])c(C(F)(F)F)cc3[nH]2)cc1 (stereo not drawn) [Compound 65] | 47.5% | 945 nM | 
16 | CC(O)(CSc1ccccc1)c1cc2cc(Cl)c(C(F)(F)F)cc2[nH]1 (stereo not drawn) [Compound 106] | 63% | 225 nM | IC50 [1]: 300 nM
17 | CC(O)(CSc1ccc(Cl)cc1)c1cc2cc([N+](=O)[O-])c(C(F)(F)F)cc2o1 (racemic) [Compound 8] | -2% | 2650 nM | 
18 | CC(O)(CSC1CCCCC1)c1cc2nc(C(F)(F)F)ccc2[nH]1 (racemic) [Compound 1] | 22% | 14000 nM | 
